Test results taken from the kinase profiling compilation of Christmann-Franck et al. (2016).

Legend:
[1] = test system: ABL1 (human), P00519 [F317L]; experiment: KINOMEscan competition binding; conditions: compound 10.0 µM
PDGFRB (human) = PDGFRB (human) (UniProt P09619); experiment: KINOMEscan competition binding; conditions: compound 10.0 µM
TNK2 (human) = TNK2 (human) (UniProt Q07912); experiment: KINOMEscan competition binding; conditions: compound 10.0 µM
PRKD1 (human) = PRKD1 (human) (UniProt Q15139); experiment: KINOMEscan competition binding; conditions: compound 10.0 µM
RIOK3 (human) = RIOK3 (human) (UniProt O14730); experiment: KINOMEscan competition binding; conditions: compound 10.0 µM
Chain of RIOK3 (human) (O14730 whole entry, looked up): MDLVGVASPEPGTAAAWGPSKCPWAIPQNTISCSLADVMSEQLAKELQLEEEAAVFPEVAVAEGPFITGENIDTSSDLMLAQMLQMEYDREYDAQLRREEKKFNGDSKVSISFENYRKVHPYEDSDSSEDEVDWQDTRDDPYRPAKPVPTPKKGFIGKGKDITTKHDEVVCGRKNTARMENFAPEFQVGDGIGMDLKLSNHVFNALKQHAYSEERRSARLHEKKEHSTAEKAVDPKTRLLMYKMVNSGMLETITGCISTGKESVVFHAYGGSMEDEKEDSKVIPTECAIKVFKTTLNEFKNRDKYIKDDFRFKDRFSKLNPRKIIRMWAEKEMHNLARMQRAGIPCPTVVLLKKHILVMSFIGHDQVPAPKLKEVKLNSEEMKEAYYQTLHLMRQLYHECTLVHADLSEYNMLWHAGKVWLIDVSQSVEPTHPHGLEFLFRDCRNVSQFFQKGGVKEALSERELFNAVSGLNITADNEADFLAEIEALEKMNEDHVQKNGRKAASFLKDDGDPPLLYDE

[2] = test system: FLT3 (human), P36888 [D835H]; experiment: KINOMEscan competition binding; conditions: compound 10.0 µM
SIK2 (human) = SIK2 (human) (UniProt Q9H0K1); experiment: KINOMEscan competition binding; conditions: compound 10.0 µM
[3] = test system: ABL1 (human), P00519 [F317I]; experiment: KINOMEscan competition binding; conditions: compound 10.0 µM
KIT (human) = KIT (human) (UniProt P10721); experiment: KINOMEscan competition binding; conditions: compound 10.0 µM
[4] = test system: KIT (human), P10721 [D816V]; experiment: KINOMEscan competition binding; conditions: compound 10.0 µM
CSF1R (human) = CSF1R (human) (UniProt P07333); experiment: KINOMEscan competition binding; conditions: compound 10.0 µM
[5] = biological target: TYK2 JH2 pseudokinase (human) (UniProt P29597); experiment: KINOMEscan competition binding; conditions: compound 10.0 µM
Chain of TYK2 JH2 pseudokinase (human) (P29597 whole entry, looked up): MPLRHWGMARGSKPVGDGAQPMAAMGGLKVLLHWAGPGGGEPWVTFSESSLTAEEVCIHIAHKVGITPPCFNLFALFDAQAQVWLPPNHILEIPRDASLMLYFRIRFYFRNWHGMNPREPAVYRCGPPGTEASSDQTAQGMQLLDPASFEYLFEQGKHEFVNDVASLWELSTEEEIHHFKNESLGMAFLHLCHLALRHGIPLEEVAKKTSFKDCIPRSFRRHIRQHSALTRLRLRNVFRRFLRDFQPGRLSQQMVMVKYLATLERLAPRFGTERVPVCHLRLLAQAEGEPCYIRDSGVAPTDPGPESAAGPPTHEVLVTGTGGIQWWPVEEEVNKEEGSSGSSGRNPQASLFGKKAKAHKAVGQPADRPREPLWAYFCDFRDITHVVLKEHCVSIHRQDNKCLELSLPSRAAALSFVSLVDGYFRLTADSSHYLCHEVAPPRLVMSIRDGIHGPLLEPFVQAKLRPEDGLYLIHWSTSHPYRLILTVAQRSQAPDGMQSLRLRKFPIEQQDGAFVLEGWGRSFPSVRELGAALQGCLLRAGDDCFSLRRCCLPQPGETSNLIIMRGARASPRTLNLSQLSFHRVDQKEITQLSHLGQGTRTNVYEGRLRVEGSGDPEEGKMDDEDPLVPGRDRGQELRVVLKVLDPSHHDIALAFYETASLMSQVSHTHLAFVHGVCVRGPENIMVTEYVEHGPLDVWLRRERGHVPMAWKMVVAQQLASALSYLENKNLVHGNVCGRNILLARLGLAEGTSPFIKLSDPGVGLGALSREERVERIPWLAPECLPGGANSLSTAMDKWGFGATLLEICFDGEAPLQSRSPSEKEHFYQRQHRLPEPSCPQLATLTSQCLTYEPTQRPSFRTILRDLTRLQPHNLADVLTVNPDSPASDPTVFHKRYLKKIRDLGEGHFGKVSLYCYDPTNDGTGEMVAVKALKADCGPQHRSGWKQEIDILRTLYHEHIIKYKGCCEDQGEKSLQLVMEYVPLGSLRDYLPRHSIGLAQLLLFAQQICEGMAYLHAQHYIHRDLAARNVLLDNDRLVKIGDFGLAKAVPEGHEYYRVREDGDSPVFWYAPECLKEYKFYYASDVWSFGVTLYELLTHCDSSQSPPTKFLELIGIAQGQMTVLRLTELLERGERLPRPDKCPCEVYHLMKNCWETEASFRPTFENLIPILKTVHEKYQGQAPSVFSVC

FLT4 (human) = FLT4 (human) (UniProt P35916); experiment: KINOMEscan competition binding; conditions: compound 10.0 µM
Chain of FLT4 (human) (P35916 whole entry, looked up): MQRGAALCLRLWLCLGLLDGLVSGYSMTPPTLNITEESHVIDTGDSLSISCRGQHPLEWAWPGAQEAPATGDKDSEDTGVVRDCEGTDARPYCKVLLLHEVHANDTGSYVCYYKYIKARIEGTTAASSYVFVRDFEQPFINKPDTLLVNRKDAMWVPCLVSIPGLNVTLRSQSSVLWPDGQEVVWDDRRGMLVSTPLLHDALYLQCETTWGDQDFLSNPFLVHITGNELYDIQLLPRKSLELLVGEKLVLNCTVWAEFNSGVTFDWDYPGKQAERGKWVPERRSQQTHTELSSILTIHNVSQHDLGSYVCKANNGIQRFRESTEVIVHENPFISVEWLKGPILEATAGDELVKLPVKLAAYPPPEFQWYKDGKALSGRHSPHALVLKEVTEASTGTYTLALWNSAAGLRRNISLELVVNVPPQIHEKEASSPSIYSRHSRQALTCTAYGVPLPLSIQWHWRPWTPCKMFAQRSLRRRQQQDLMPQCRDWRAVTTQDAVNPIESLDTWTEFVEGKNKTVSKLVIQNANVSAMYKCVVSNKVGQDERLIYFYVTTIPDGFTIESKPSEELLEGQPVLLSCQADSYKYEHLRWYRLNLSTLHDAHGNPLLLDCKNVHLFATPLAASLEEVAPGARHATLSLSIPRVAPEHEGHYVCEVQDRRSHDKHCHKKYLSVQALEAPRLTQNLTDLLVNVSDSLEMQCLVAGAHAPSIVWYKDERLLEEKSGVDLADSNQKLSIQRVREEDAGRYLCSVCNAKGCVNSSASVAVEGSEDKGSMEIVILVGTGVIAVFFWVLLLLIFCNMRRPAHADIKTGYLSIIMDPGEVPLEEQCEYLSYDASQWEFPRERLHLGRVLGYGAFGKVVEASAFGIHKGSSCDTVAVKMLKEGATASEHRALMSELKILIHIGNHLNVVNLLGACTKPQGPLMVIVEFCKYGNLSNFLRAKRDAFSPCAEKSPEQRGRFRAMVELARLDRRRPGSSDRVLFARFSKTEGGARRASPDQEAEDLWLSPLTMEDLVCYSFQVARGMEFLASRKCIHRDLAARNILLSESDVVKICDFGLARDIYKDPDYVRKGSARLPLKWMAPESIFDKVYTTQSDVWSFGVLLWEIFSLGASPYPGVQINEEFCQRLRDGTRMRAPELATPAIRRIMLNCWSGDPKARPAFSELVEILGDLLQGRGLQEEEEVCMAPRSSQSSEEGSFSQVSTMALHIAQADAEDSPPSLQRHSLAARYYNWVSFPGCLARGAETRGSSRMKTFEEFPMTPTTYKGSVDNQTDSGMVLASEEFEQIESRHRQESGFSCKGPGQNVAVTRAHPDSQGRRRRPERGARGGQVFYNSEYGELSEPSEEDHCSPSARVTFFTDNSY

[6] = test system: KIT (human), P10721 [V559D]; experiment: KINOMEscan competition binding; conditions: compound 10.0 µM
MYLK4 (human) = MYLK4 (human) (UniProt Q86YV6); experiment: KINOMEscan competition binding; conditions: compound 10.0 µM
BMP2K (human) = BMP2K (human) (UniProt Q9NSY1); experiment: KINOMEscan competition binding; conditions: compound 10.0 µM
[7] = test system: EIF2AK4 KD2 (human), Q9P2K8 [S808G]; experiment: KINOMEscan competition binding; conditions: compound 10.0 µM
[8] = test system: KIT (human), P10721 [V559D/T670I]; experiment: KINOMEscan competition binding; conditions: compound 10.0 µM
TNK1 (human) = TNK1 (human) (UniProt Q13470); experiment: KINOMEscan competition binding; conditions: compound 10.0 µM
FRK (human) = FRK (human) (UniProt P42685); experiment: KINOMEscan competition binding; conditions: compound 10.0 µM
FGFR4 (human) = FGFR4 (human) (UniProt P22455); experiment: KINOMEscan competition binding; conditions: compound 10.0 µM
STK33 (human) = STK33 (human) (UniProt Q9BYT3); experiment: KINOMEscan competition binding; conditions: compound 10.0 µM
SLK (human) = SLK (human) (UniProt Q9H2G2); experiment: KINOMEscan competition binding; conditions: compound 10.0 µM
BLK (human) = BLK (human) (UniProt P51451); experiment: KINOMEscan competition binding; conditions: compound 10.0 µM
RPS6KA6 KD2 (human) = RPS6KA6 KD2 (human) (UniProt Q9UK32); experiment: KINOMEscan competition binding; conditions: compound 10.0 µM
PIP5K1A (human) = PIP5K1A (human) (UniProt Q99755); experiment: KINOMEscan competition binding; conditions: compound 10.0 µM
NEK2 (human) = NEK2 (human) (UniProt P51955); experiment: KINOMEscan competition binding; conditions: compound 10.0 µM
[9] = test system: KIT (human), P10721 [V559D/V654A]; experiment: KINOMEscan competition binding; conditions: compound 10.0 µM
PRKD3 (human) = PRKD3 (human) (UniProt O94806); experiment: KINOMEscan competition binding; conditions: compound 10.0 µM
[10] = test system: FLT3 (human), P36888 [K663Q]; experiment: KINOMEscan competition binding; conditions: compound 10.0 µM
RPS6KA1 KD2 (human) = RPS6KA1 KD2 (human) (UniProt Q15418); experiment: KINOMEscan competition binding; conditions: compound 10.0 µM
PLK3 (human) = PLK3 (human) (UniProt Q9H4B4); experiment: KINOMEscan competition binding; conditions: compound 10.0 µM
CHEK1 (human) = CHEK1 (human) (UniProt O14757); experiment: KINOMEscan competition binding; conditions: compound 10.0 µM
RIOK1 (human) = RIOK1 (human) (UniProt Q9BRS2); experiment: KINOMEscan competition binding; conditions: compound 10.0 µM
GAK (human) = GAK (human) (UniProt O14976); experiment: KINOMEscan competition binding; conditions: compound 10.0 µM
Chain of GAK (human) (O14976 whole entry, looked up): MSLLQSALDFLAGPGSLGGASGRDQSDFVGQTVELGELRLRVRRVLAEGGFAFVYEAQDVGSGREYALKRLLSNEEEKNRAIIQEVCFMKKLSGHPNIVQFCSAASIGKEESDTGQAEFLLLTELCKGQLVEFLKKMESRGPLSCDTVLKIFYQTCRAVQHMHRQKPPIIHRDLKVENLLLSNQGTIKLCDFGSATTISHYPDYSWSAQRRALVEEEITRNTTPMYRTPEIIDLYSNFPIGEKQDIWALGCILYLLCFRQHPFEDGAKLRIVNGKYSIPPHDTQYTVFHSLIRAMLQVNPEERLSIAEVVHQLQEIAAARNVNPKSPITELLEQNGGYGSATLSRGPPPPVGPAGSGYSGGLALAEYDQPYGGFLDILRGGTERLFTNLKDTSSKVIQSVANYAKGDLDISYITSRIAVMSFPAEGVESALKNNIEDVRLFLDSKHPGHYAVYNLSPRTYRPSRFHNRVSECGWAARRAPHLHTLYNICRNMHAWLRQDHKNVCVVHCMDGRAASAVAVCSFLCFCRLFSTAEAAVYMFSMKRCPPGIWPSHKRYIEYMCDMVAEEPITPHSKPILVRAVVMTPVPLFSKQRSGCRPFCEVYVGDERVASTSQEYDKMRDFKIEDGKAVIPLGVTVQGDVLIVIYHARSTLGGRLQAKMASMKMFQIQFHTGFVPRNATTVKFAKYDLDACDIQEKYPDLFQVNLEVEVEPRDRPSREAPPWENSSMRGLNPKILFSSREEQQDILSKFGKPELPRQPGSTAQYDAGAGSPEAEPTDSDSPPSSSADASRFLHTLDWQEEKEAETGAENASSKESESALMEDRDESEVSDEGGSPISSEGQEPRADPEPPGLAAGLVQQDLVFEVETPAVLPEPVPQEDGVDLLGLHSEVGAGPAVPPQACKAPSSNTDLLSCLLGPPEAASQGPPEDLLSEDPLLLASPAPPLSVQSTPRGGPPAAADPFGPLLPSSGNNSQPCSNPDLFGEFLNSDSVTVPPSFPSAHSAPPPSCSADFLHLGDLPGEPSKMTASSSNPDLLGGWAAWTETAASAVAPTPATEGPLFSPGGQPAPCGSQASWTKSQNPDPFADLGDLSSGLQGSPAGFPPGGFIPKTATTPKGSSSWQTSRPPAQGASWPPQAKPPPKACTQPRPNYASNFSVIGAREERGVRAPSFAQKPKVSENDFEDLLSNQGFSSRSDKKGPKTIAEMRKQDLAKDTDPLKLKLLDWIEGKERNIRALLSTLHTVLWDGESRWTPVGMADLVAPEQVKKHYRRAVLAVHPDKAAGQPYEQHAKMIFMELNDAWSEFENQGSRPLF

FLT3 (human) = FLT3 (human) (UniProt P36888); experiment: KINOMEscan competition binding; conditions: compound 10.0 µM
PDGFRA (human) = PDGFRA (human) (UniProt P16234); experiment: KINOMEscan competition binding; conditions: compound 10.0 µM
MAPK14 (human) = MAPK14 (human) (UniProt Q16539); experiment: KINOMEscan competition binding; conditions: compound 10.0 µM
PIM1 (human) [11] = biological target: PIM1 (human) (UniProt P11309); experiment: KINOMEscan competition binding; conditions: compound 10.0 µM
Chain of PIM1 (human) (P11309 whole entry, looked up): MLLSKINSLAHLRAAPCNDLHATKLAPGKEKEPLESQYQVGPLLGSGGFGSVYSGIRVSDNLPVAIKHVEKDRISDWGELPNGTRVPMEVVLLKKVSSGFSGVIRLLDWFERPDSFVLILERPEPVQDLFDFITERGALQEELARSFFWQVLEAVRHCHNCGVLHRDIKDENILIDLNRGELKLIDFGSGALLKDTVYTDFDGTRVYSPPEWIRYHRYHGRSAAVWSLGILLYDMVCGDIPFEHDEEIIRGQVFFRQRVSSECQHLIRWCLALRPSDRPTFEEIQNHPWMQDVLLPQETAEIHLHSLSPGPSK

MAPK8 (human) = MAPK8 (human) (UniProt P45983); experiment: KINOMEscan competition binding; conditions: compound 10.0 µM
PIM3 (human) = PIM3 (human) (UniProt Q86V86); experiment: KINOMEscan competition binding; conditions: compound 10.0 µM
MAPK10 (human) = MAPK10 (human) (UniProt P53779); experiment: KINOMEscan competition binding; conditions: compound 10.0 µM
HIPK1 (human) = HIPK1 (human) (UniProt Q86Z02); experiment: KINOMEscan competition binding; conditions: compound 10.0 µM
CSNK2A1 (human) = CSNK2A1 (human) (UniProt P68400); experiment: KINOMEscan competition binding; conditions: compound 10.0 µM
CSNK2A2 (human) = CSNK2A2 (human) (UniProt P19784); experiment: KINOMEscan competition binding; conditions: compound 10.0 µM
DAPK3 (human) = DAPK3 (human) (UniProt O43293); experiment: KINOMEscan competition binding; conditions: compound 10.0 µM
AXL (human) = AXL (human) (UniProt P30530); experiment: KINOMEscan competition binding; conditions: compound 10.0 µM
DAPK2 (human) = DAPK2 (human) (UniProt Q9UIK4); experiment: KINOMEscan competition binding; conditions: compound 10.0 µM
SRPK1 (human) = SRPK1 (human) (UniProt Q96SB4); experiment: KINOMEscan competition binding; conditions: compound 10.0 µM
ALK (human) = ALK (human) (UniProt Q9UM73); experiment: KINOMEscan competition binding; conditions: compound 10.0 µM
STK17B (human) = STK17B (human) (UniProt O94768); experiment: KINOMEscan competition binding; conditions: compound 10.0 µM
STK17A (human) = STK17A (human) (UniProt Q9UEE5); experiment: KINOMEscan competition binding; conditions: compound 10.0 µM
PIM2 (human) [12] = biological target: PIM2 (human) (UniProt Q9P1W9); experiment: KINOMEscan competition binding; conditions: compound 10.0 µM
Chain of PIM2 (human) (Q9P1W9 whole entry, looked up): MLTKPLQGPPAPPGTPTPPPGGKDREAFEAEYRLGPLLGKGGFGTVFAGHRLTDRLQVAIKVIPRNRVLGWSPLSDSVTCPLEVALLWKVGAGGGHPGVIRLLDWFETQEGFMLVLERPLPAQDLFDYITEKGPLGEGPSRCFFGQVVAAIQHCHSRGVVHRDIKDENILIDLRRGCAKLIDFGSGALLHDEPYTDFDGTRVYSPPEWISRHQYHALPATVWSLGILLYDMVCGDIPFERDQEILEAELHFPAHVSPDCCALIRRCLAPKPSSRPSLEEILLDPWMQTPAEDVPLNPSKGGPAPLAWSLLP

STK3 (human) = STK3 (human) (UniProt Q13188); experiment: KINOMEscan competition binding; conditions: compound 10.0 µM
CDK16 (human) = CDK16 (human) (UniProt Q00536); experiment: KINOMEscan competition binding; conditions: compound 10.0 µM
MERTK (human) = MERTK (human) (UniProt Q12866); experiment: KINOMEscan competition binding; conditions: compound 10.0 µM
TGFBR2 (human) = TGFBR2 (human) (UniProt P37173); experiment: KINOMEscan competition binding; conditions: compound 10.0 µM
PLK4 (human) = PLK4 (human) (UniProt O00444); experiment: KINOMEscan competition binding; conditions: compound 10.0 µM
SRPK3 (human) = SRPK3 (human) (UniProt Q9UPE1); experiment: KINOMEscan competition binding; conditions: compound 10.0 µM
NEK6 (human) = NEK6 (human) (UniProt Q9HC98); experiment: KINOMEscan competition binding; conditions: compound 10.0 µM
AURKC (human) = AURKC (human) (UniProt Q9UQB9); experiment: KINOMEscan competition binding; conditions: compound 10.0 µM
NEK7 (human) = NEK7 (human) (UniProt Q8TDX7); experiment: KINOMEscan competition binding; conditions: compound 10.0 µM
MAPK9 (human) = MAPK9 (human) (UniProt P45984); experiment: KINOMEscan competition binding; conditions: compound 10.0 µM
PIM1 (human) [13] = biological target: PIM1 (human) (UniProt P11309); experiment: SelectScreen, TR FRET
PIM2 (human) [14] = biological target: PIM2 (human) (UniProt Q9P1W9); experiment: SelectScreen, TR FRET

## COc1cc(N2CCN(C)CC2)ccc1Nc1ncc2c(n1)N1CCC[C@H]1CC(=O)N2
[1]
  kinase still bound, per cent of control: 19%
PDGFRB (human)
  kinase still bound, per cent of control: 0.05%
TNK2 (human)
  kinase still bound, per cent of control: 8.6%
PRKD1 (human)
  kinase still bound, per cent of control: 29%
RIOK3 (human)
  kinase still bound, per cent of control: 31%
[2]
  kinase still bound, per cent of control: 27%
SIK2 (human)
  kinase still bound, per cent of control: 18%
[3]
  kinase still bound, per cent of control: 13%
KIT (human)
  kinase still bound, per cent of control: 0%
[4]
  kinase still bound, per cent of control: 12%
CSF1R (human)
  kinase still bound, per cent of control: 0.8%
[5]
  kinase still bound, per cent of control: 27%
FLT4 (human)
  kinase still bound, per cent of control: 33%
[6]
  kinase still bound, per cent of control: 0%
MYLK4 (human)
  kinase still bound, per cent of control: 7.8%
BMP2K (human)
  kinase still bound, per cent of control: 29%
[7]
  kinase still bound, per cent of control: 21%
[8]
  kinase still bound, per cent of control: 33%
TNK1 (human)
  kinase still bound, per cent of control: 25%
FRK (human)
  kinase still bound, per cent of control: 8.2%
FGFR4 (human)
  kinase still bound, per cent of control: 17%
STK33 (human)
  kinase still bound, per cent of control: 12%
SLK (human)
  kinase still bound, per cent of control: 31%
BLK (human)
  kinase still bound, per cent of control: 23%
RPS6KA6 KD2 (human)
  kinase still bound, per cent of control: 2%
PIP5K1A (human)
  kinase still bound, per cent of control: 11%
NEK2 (human)
  kinase still bound, per cent of control: 24%
[9]
  kinase still bound, per cent of control: 8.4%
PRKD3 (human)
  kinase still bound, per cent of control: 30%
[10]
  kinase still bound, per cent of control: 19%
RPS6KA1 KD2 (human)
  kinase still bound, per cent of control: 14%
PLK3 (human)
  kinase still bound, per cent of control: 9.5%
CHEK1 (human)
  kinase still bound, per cent of control: 6%
RIOK1 (human)
  kinase still bound, per cent of control: 21%
GAK (human)
  kinase still bound, per cent of control: 0.85%
FLT3 (human)
  kinase still bound, per cent of control: 11%
PDGFRA (human)
  kinase still bound, per cent of control: 1.8%

## O=C1NC(=S)S/C1=C\c1ccc(-c2cccc3ccccc23)o1
MAPK14 (human)
  kinase still bound, per cent of control: 33%
PIM1 (human) [11]
  kinase still bound, per cent of control: 3%
MAPK8 (human)
  kinase still bound, per cent of control: 30%
PIM3 (human)
  kinase still bound, per cent of control: 2.6%
MAPK10 (human)
  kinase still bound, per cent of control: 30%
HIPK1 (human)
  kinase still bound, per cent of control: 3.7%
CSNK2A1 (human)
  kinase still bound, per cent of control: 8%
RIOK3 (human)
  kinase still bound, per cent of control: 30%
[2]
  kinase still bound, per cent of control: 34%
CSNK2A2 (human)
  kinase still bound, per cent of control: 12%
[5]
  kinase still bound, per cent of control: 17%
DAPK3 (human)
  kinase still bound, per cent of control: 22%
FLT4 (human)
  kinase still bound, per cent of control: 25%
AXL (human)
  kinase still bound, per cent of control: 29%
DAPK2 (human)
  kinase still bound, per cent of control: 17%
SRPK1 (human)
  kinase still bound, per cent of control: 32%
ALK (human)
  kinase still bound, per cent of control: 19%
STK17B (human)
  kinase still bound, per cent of control: 3.6%
STK17A (human)
  kinase still bound, per cent of control: 1.8%
PIM2 (human) [12]
  kinase still bound, per cent of control: 0.8%
STK3 (human)
  kinase still bound, per cent of control: 34%
CDK16 (human)
  kinase still bound, per cent of control: 1.4%
MERTK (human)
  kinase still bound, per cent of control: 20%
TGFBR2 (human)
  kinase still bound, per cent of control: 14%
PLK4 (human)
  kinase still bound, per cent of control: 1.6%
SRPK3 (human)
  kinase still bound, per cent of control: 33%
NEK6 (human)
  kinase still bound, per cent of control: 26%
AURKC (human)
  kinase still bound, per cent of control: 27%
GAK (human)
  kinase still bound, per cent of control: 28%
NEK7 (human)
  kinase still bound, per cent of control: 27%
MAPK9 (human)
  kinase still bound, per cent of control: 9.8%
PIM1 (human) [13]
  IC50: 1620 nM
PIM2 (human) [14]
  IC50: 1100 nM
